Source: PubChem BioAssay AID248 (DTP/NCI, 2004)
Several values for one entry are separate records, joined by “and”; a condition that tells them apart may be missing. Equal entries are not always repeated. Toxic doses and inconclusive results are not listed. No stated cut-off is given here; in the data, active means T/C of 150% or more; inactive means T/C below 125%.

Test system: L1210 leukemia ip in BDF1 mice, survival T/C
Assay: NCI In Vivo Anticancer Drug Screen. Data for tumor model L1210 Leukemia (intraperitoneal) in B6D2F1 (BDF1) mice
Conditions: higher = longer survival
In short: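 Transplantable tumor model; survival measured in treated vs vehicle control mice. Value = treated/control.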

[1] = endpoint: mean survival time, dose: 100.0 mg/kg/injection, schedule: Q01DX001 (ip), vehicle: saline
[2] = endpoint: mean survival time, dose: 200.0 mg/kg/injection, schedule: Q01DX001 (ip), vehicle: saline
[3] = endpoint: mean survival time, dose: 400.0 mg/kg/injection, schedule: Q01DX001 (ip), vehicle: saline
[4] = endpoint: mean survival time, dose: 100.0 mg/kg/injection, schedule: Q04DX002 (ip), vehicle: Klucel (hydroxypropylcellulose) (HPC)
[5] = endpoint: mean survival time, dose: 200.0 mg/kg/injection, schedule: Q04DX002 (ip), vehicle: Klucel (hydroxypropylcellulose) (HPC)
[6] = endpoint: mean survival time, dose: 400.0 mg/kg/injection, schedule: Q04DX002 (ip), vehicle: Klucel (hydroxypropylcellulose) (HPC)
[7] = endpoint: mean survival time, dose: 100.0 mg/kg/injection, schedule: Q04DX003 (ip), vehicle: saline
[8] = endpoint: mean survival time, dose: 200.0 mg/kg/injection, schedule: Q04DX003 (ip), vehicle: saline
[9] = endpoint: mean survival time, dose: 400.0 mg/kg/injection, schedule: Q04DX003 (ip), vehicle: saline
[10] = endpoint: mean survival time, dose: 100.0 mg/kg/injection, schedule: Q01DX009 (ip), vehicle: saline with Tween-80
[11] = endpoint: mean survival time, dose: 200.0 mg/kg/injection, schedule: Q01DX009 (ip), vehicle: saline with Tween-80

Measured: T/C

CCC(SC#N)C(CC)SC#N (centres undefined)
inactive: endpoint: mean survival time, dose: 12.5 mg/kg/injection, schedule: Q04DX002 (ip), vehicle: Klucel (hydroxypropylcellulose) (HPC) 103 % of control | endpoint: mean survival time, dose: 25.0 mg/kg/injection, schedule: Q04DX002 (ip), vehicle: Klucel (hydroxypropylcellulose) (HPC) 93 % of control | endpoint: mean survival time, dose: 50.0 mg/kg/injection, schedule: Q04DX002 (ip), vehicle: Klucel (hydroxypropylcellulose) (HPC) 90 % of control

CCC(Nc1ccccc1)Nc1ccccc1
inactive: endpoint: mean survival time, dose: 100.0 mg/kg/injection, schedule: Q04DX003 (ip), vehicle: acetone 112 % of control | endpoint: mean survival time, dose: 200.0 mg/kg/injection, schedule: Q04DX003 (ip), vehicle: acetone 87 % of control | endpoint: mean survival time, dose: 400.0 mg/kg/injection, schedule: Q04DX003 (ip), vehicle: acetone 94 % of control

CCCC1(c2ccccc2)C(C#N)C(=O)NC(=O)C1C#N (centres undefined)
inactive: [1] 101 % of control | [2] 97 % of control

c1ccc(CNc2ncnc3[nH]ncc23)cc1
inactive: endpoint: mean survival time, dose: 8.0 mg/kg/injection, schedule: Q01DX009 (ip), vehicle: saline 98 % of control | endpoint: mean survival time, dose: 16.0 mg/kg/injection, schedule: Q01DX009 (ip), vehicle: saline 103 % of control | endpoint: mean survival time, dose: 25.0 mg/kg/injection, schedule: Q01DX Z (ip), vehicle: carboxymethylcellulose (CMC) 123 % of control | endpoint: mean survival time, dose: 32.0 mg/kg/injection, schedule: Q01DX009 (ip), vehicle: saline 98 % of control | endpoint: mean survival time, dose: 50.0 mg/kg/injection, schedule: Q01DX Z (ip), vehicle: carboxymethylcellulose (CMC) 109 % of control | [2] 105 % of control | [3] 101 % of control | endpoint: mean survival time, dose: 800.0 mg/kg/injection, schedule: Q01DX001 (ip), vehicle: saline 102 % of control | endpoint: median survival time, dose: 8.0 mg/kg/injection, schedule: Q01DX009 (ip), vehicle: saline 93 % of control and 100 % of control and 118 % of control | endpoint: median survival time, dose: 16.0 mg/kg/injection, schedule: Q01DX009 (ip), vehicle: saline 100 % of control (2×) and 112 % of control | endpoint: median survival time, dose: 32.0 mg/kg/injection, schedule: Q01DX009 (ip), vehicle: saline 105 % of control and 112 % of control | endpoint: median survival time, dose: 64.0 mg/kg/injection, schedule: Q01DX009 (ip), vehicle: saline 100 % of control (2×) and 122 % of control

O=C(O)C(=O)c1ccc(O)cc1O
inactive: [1] 111 % of control | [2] 103 % of control

CCOC(=O)C(=O)Nc1ncn[nH]1
inactive: endpoint: mean survival time, dose: 100.0 mg/kg/injection, schedule: Q01DX005 (ip), vehicle: Klucel (hydroxypropylcellulose) (HPC) 95 % of control | endpoint: mean survival time, dose: 100.0 mg/kg/injection, schedule: Q01DX009 (ip), vehicle: Klucel (hydroxypropylcellulose) (HPC) 96 % of control | [4] 96 % of control | endpoint: mean survival time, dose: 200.0 mg/kg/injection, schedule: Q01DX005 (ip), vehicle: Klucel (hydroxypropylcellulose) (HPC) 98 % of control | endpoint: mean survival time, dose: 200.0 mg/kg/injection, schedule: Q01DX009 (ip), vehicle: Klucel (hydroxypropylcellulose) (HPC) 104 % of control | [5] 90 % of control | endpoint: mean survival time, dose: 400.0 mg/kg/injection, schedule: Q01DX005 (ip), vehicle: Klucel (hydroxypropylcellulose) (HPC) 103 % of control | endpoint: mean survival time, dose: 400.0 mg/kg/injection, schedule: Q01DX009 (ip), vehicle: Klucel (hydroxypropylcellulose) (HPC) 93 % of control | [6] 101 % of control

O=C(CC1NCCCC1O)Cn1cnc2cc3c(cc2c1=O)OCO3 (centres undefined)
inactive: endpoint: mean survival time, dose: 5.0 mg/kg/injection, schedule: Q01DX009 (ip), vehicle: saline 117 % of control | endpoint: mean survival time, dose: 5.0 mg/kg/injection, schedule: Q04DX003 (ip), vehicle: saline 105 % of control | endpoint: mean survival time, dose: 10.0 mg/kg/injection, schedule: Q01DX009 (ip), vehicle: saline 122 % of control | endpoint: mean survival time, dose: 10.0 mg/kg/injection, schedule: Q04DX003 (ip), vehicle: saline 105 % of control | endpoint: mean survival time, dose: 20.0 mg/kg/injection, schedule: Q01DX009 (ip), vehicle: saline 95 % of control | endpoint: mean survival time, dose: 20.0 mg/kg/injection, schedule: Q04DX003 (ip), vehicle: saline 117 % of control

CC(=O)Oc1ccc2c(C)cc(=O)oc2c1
inactive: [1] 100 % of control | [2] 109 % of control

C/C=C\C=N\NC(=O)C(=O)N/N=C/C=C\C
inactive: [4] 97 % of control | [5] 91 % of control | [6] 112 % of control

COC1CCN(CCCn2c3ccccc3c3ccc(C(C)=O)cc32)CC1
inactive: [1] 97 % of control | [2] 105 % of control

O=C(CSc1ccc(Cl)cc1)Nc1ccccc1
inactive: endpoint: mean survival time, dose: 100.0 mg/kg/injection, schedule: Q04DX002 (ip), vehicle: gum acacia 92 % of control | endpoint: mean survival time, dose: 200.0 mg/kg/injection, schedule: Q04DX002 (ip), vehicle: gum acacia 87 % of control | endpoint: mean survival time, dose: 400.0 mg/kg/injection, schedule: Q04DX002 (ip), vehicle: gum acacia 89 % of control

CCCCOCCCNC(F)(F)C(=O)Nc1ccc(S(=O)(=O)c2ccc(NC(=O)C(F)(F)NCCCOCCCC)cc2)cc1
inactive: [1] 113 % of control | [2] 97 % of control | [3] 94 % of control

CN(C)Cc1cccc(C(F)(F)F)c1C(O)c1ccccc1 (centres undefined)
inactive: endpoint: mean survival time, dose: 50.0 mg/kg/injection, schedule: Q01DX001 (ip), vehicle: saline 100 % of control | [1] 94 % of control | [2] 103 % of control | [3] 100 % of control

CCC(C)C1(C)C(=O)N(C)C(=S)N(C)C1=O (centres undefined)
inactive: endpoint: mean survival time, dose: 5.0 mg/kg/injection, schedule: Q01DX001 (ip), vehicle: saline 95 % of control | endpoint: mean survival time, dose: 10.0 mg/kg/injection, schedule: Q01DX001 (ip), vehicle: saline 91 % of control | endpoint: mean survival time, dose: 20.0 mg/kg/injection, schedule: Q01DX001 (ip), vehicle: saline 96 % of control | endpoint: mean survival time, dose: 40.0 mg/kg/injection, schedule: Q01DX001 (ip), vehicle: saline 89 % of control

NC(COC(c1ccccc1)(c1ccccc1)c1ccccc1)C(=O)O (centres undefined)
inactive: endpoint: mean survival time, dose: 25.0 mg/kg/injection, schedule: Q01DX009 (ip), vehicle: other 100 % of control | endpoint: mean survival time, dose: 200.0 mg/kg/injection, schedule: Q01DX009 (ip), vehicle: other 98 % of control

CNc1ccc(C(=O)NC(CCC(=O)O)C(=O)O)cc1[N+](=O)[O-] (centres undefined)
inactive: [7] 105 % of control | [8] 94 % of control | [9] 103 % of control

O=C(CNC(=O)Nc1ccc(Cl)c(Cl)c1)N/N=C/c1ccccc1F
inactive: endpoint: mean survival time, dose: 50.0 mg/kg/injection, schedule: Q01DX009 (ip), vehicle: saline with Tween-80 93 % of control | [10] 89 % of control | [11] 89 % of control

CC(=O)OCC(OC(C)=O)C(OC(C)=O)C(OC(C)=O)C(O)CO (centres undefined)
inactive: [7] 96 % of control | [8] 96 % of control | [9] 96 % of control

ON=C1CCCCC1
inactive: endpoint: mean survival time, dose: 75.0 mg/kg/injection, schedule: Q01DX009 (ip), vehicle: other 95 % of control | [1] 88 % of control | [10] 96 % of control | endpoint: mean survival time, dose: 100.0 mg/kg/injection, schedule: Q04DX002 (ip), vehicle: other 111 % of control | endpoint: mean survival time, dose: 100.0 mg/kg/injection, schedule: Q04DX002 (ip), vehicle: saline with Tween-80 97 % of control | endpoint: mean survival time, dose: 150.0 mg/kg/injection, schedule: Q01DX009 (ip), vehicle: other 105 % of control | [2] 96 % of control | [11] 94 % of control | endpoint: mean survival time, dose: 200.0 mg/kg/injection, schedule: Q04DX002 (ip), vehicle: other 97 % of control | endpoint: mean survival time, dose: 200.0 mg/kg/injection, schedule: Q04DX002 (ip), vehicle: saline with Tween-80 94 % of control | endpoint: mean survival time, dose: 300.0 mg/kg/injection, schedule: Q01DX009 (ip), vehicle: other 94 % of control | [3] 93 % of control | endpoint: mean survival time, dose: 400.0 mg/kg/injection, schedule: Q01DX009 (ip), vehicle: saline with Tween-80 91 % of control | endpoint: mean survival time, dose: 400.0 mg/kg/injection, schedule: Q04DX002 (ip), vehicle: other 97 % of control | endpoint: mean survival time, dose: 400.0 mg/kg/injection, schedule: Q04DX002 (ip), vehicle: saline with Tween-80 102 % of control
